Broadly, the pEC50 is the EC50 on a negative log10 scale, so that one unit is a factor of ten. By EC90 is commonly meant the point of the concentration-response curve where the effect stands at 90%. As usually defined, the CC50 is the concentration that lowers cell viability or growth by half. The term melting point denotes the temperature of the solid-liquid transition.

Experimental findings from US20120108592A1, “PHARMACEUTICAL COMPOSITIONS AND METHODS OF USE OF SALICYLANILIDES FOR TREATMENT OF HEPATITIS VIRUSES” (priority 2010, published 2012) are described below.

pEC50: −log10 of the molar value. Values joined by “and” are separate entries in the source; they are usually repeats but may differ in a detail not shown here. Equal values may be shown once.

Data set [1] relates to HBV virion in 2.2.15 cells. Kind of data set: HBV antiviral assay in 2.2.15 cells, virion (VIR) HBV DNA. The format is cell-based. The note with it: Hepatitis B virus, HBV virion DNA, 2.2.15 cells, nine daily doses; for pEC50: read-out: EC50 (VIR); for EC90: read-out: EC90 (VIR).
Procedure: (§1) HBV antiviral assays were conducted as previously described [Korba, B. E. et al. Antiviral Res. 77, 56-63 (2008);].
Data set [2] concerns HBV replication intermediates in 2.2.15 cells. Nature of the data set: HBV antiviral assay in 2.2.15 cells, replication intermediates (RI) HBV DNA. The format is cell-based. Particulars: Hepatitis B virus, HBV replication intermediates, 2.2.15 cells, nine daily doses; for pEC50: read-out: EC50 (RI); for EC90: read-out: EC90 (RI).
Procedure: as §1
The nature of data set [3]: Cytotoxicity in 2.2.15 cells (neutral red dye uptake). The data set is classed as cell-based. Particulars: human, nine daily doses. The protocol:
Briefly, confluent cultures of 2.2.15 cells were maintained on 96-well flat-bottomed tissue culture plates (confluence in this culture system is required for active, high levels of HBV replication equivalent to that observed in chronically-infected individuals. Cultures were treated with nine consecutive daily doses of the test compounds. HBV DNA levels were assessed by quantitative blot hybridization 24 hr. after the last treatment. Cytotoxicity was assessed by uptake of neutral red dye 24 hr. following the last treatment.

For data set [4], the system named is HCV replicon cell line, AVA5 (sub-genomic CONI, genotype 1b). Nature of the data set: Primary HCV replicon cell assay, antiviral activity (intracellular HCV RNA, blot hybridization). The format is cell-based. Particulars: Hepatitis C virus, Ava5, 72 h, 3-day assay; for pEC50: 2-fold depression of intracellular HCV RNA; for EC90: 10-fold depression of intracellular HCV RNA. The protocol: Antiviral activity of test compounds was assessed in a 3-day assay using the stably-expressing HCV replicon cell line, AVA5 (sub-genomic CONI, genotype 1b) [Korba, B. E. et al. Antiviral Res. 77, 56-63 (2008); Blight et al., Science 290, 1972-1974 (2000)] maintained as sub-confluent cultures on 96-well plates as previously described [Okuse et al., Antiviral Research 65, 23-34 (2005)]. Antiviral activity was determined by blot hybridization analysis of intracellular HCV RNA (normalized to the level of cellular B-actin RNA in each culture sample) and cytotoxicity was assessed by neutral red dye uptake after 3 days of treatment. Additional studies were performed using Huh7 cells containing another HCV replicon, H/FL-Neo, a genotype la full length construct [Blight et al., J. Virol. 77, 3181-3190 (2003)]. For studies involving human serum, standard culture medium (which contains 10% fetal bovine serum) and assay conditions were maintained.
EC50, EC90 and CC50 values (±standard deviations [S.D.]) were calculated by linear regression analysis using data combined from all treated cultures (Korba, B. E. et al. Antiviral Res. 77, 56-63 (2008)). […] Selectivity index (S.I.) was calculated as CC50/EC90 for HBV assays and CC50/EC50 for HCV assays.
A general note: In antiviral work, replicon cells carry a viral genome segment that copies itself.

A short description of data set [5]: Primary HCV replicon cell assay, cytotoxicity (neutral red dye uptake). The format is cell-based. The note with it: human, AVA5 HCV replicon cells (sub-genomic CON1, genotype 1b), 3 days of treatment.
Procedure: Antiviral activity of test compounds was assessed in a 3-day assay using the stably-expressing HCV replicon cell line, AVA5 (sub-genomic CONI, genotype 1b) [Korba, B. E. et al. Antiviral Res. 77, 56-63 (2008); Blight et al., Science 290, 1972-1974 (2000)] maintained as sub-confluent cultures on 96-well plates as previously described [Okuse et al., Antiviral Research 65, 23-34 (2005)]. Antiviral activity was determined by blot hybridization analysis of intracellular HCV RNA (normalized to the level of cellular B-actin RNA in each culture sample) and cytotoxicity was assessed by neutral red dye uptake after 3 days of treatment. Additional studies were performed using Huh7 cells containing another HCV replicon, H/FL-Neo, a genotype la full length construct [Blight et al., J. Virol. […] For studies involving human serum, standard culture medium (which contains 10% fetal bovine serum) and assay conditions were maintained.

As for `CC(=O)Oc1ccccc1C(=O)Nc1ccc(Br)cc1` [Compound 39, 2-(4-bromophenylcarbamoyl)phenyl acetate], in data set [1], the pEC50 is 6.12 and the EC90 was 3 µM. For the same compound, in data set [2], the pEC50 is 5.68 and the EC90 stood at 6.8 µM. The CC50 at 9 days in data set [3] is more than 100 µM.
The compound `O=C(Nc1cc(C(F)(F)F)cc(C(F)(F)F)c1)c1ccccc1O` registered a melting point of 196 to 198 °C.
`CC(=O)Oc1ccccc1C(=O)Nc1cc(C(F)(F)F)ccc1Cl` [Compound 52, 2-(2-chloro-5-(trifluoromethyl)phenylcarbamoyl)phenyl acetate]: in data set [1], the pEC50 is 5.60 and the EC90 amounted to 9.1 µM. This compound also displayed a CC50 at 9 days in data set [3] of 59 µM.
The compound `Cc1cccc(C(=O)Nc2ccccc2Cl)c1O` returned a melting point of 99.8 to 100.4 °C.
Consider `CC(=O)Oc1ccccc1C(=O)Nc1ccc(Cl)cc1` [Compound 38, 2-(4-chlorophenylcarbamoyl)phenyl acetate], for which, in data set [1], the pEC50 is 5.46 and the concentration for an effect of 90% (EC90) stood at 9.7 µM. Besides, the CC50 at 9 days in data set [3] was more than 100 µM.
Consider `Cc1cccc(C(=O)Nc2cccc([N+](=O)[O-])c2)c1O`, for which the melting point is 217.5 °C.
Compound `O=C(Nc1ccccc1Br)c1ccccc1O` [Compound 4, N-(2-bromophenyl)-2-hydroxybenzamide] had a melting point of 165.5 °C. In data set [4], the pEC50 is 5.24 and it took 20 µM to reach the 90% level (EC90). Moreover, in data set [5], the CC50 at 3 days is more than 100 µM.
With `CC(=O)Oc1ccccc1C(=O)Nc1ccc(F)c(F)c1` [Compound 55, 2-(3,4-difluorophenylcarbamoyl)phenyl acetate], in data set [1], the pEC50 was 5.66 and the EC90 stood at 8.8 µM. The compound further had a cytotoxic concentration (CC50) at 9 days in data set [3] of 48 µM.
Consider `O=C(O)c1ccccc1C(=O)Nc1ccc(F)cc1`, for which the melting point worked out at 167.3 °C.
In turn, `O=C(Nc1cccc(C(F)(F)F)c1)c1ccccc1O` [Compound 27, 2-hydroxy-N-(3-(trifluoromethyl)phenyl)benzamide] registered a melting point of 188 to 190.6 °C. In data set [4], the pEC50 was 5.44 and the EC90 came to 11 µM. Further, the CC50 at 3 days in data set [5] was more than 100 µM.
Turning to `O=C(Nc1ccc(C(F)(F)F)cc1)c1ccccc1O` [Compound 51, 2-hydroxy-N-(4-(trifluoromethyl)phenyl)benzamide], in data set [1], the pEC50 was 5.25 and the concentration for an effect of 90% (EC90) was 21 µM. The compound also had a half-maximal cytotoxic concentration (CC50) at 9 days in data set [3] of more than 100 µM.
`CC(=O)Oc1ccccc1C(=O)Nc1cccc(S(C)(=O)=O)c1` returned a melting point of 51 to 53 °C.
In the case of `CS(=O)(=O)c1ccc(NC(=O)c2ccccc2O)cc1`, the melting point is 193 °C and 193 to 196 °C.
Still for that read-out and setting: the same measure for `CS(=O)(=O)c1cccc(NC(=O)c2ccccc2O)c1`: 210 to 212 °C.
For `Cc1cccc(C(=O)Nc2cccc(F)c2)c1O` [Compound 9, N-(3-fluorophenyl)-2-hydroxy-3-methylbenzamide], the melting point lay in the range of 143.8 to 144.8 °C. In data set [4], this compound had a pEC50 of 5.72 and an EC90 of 9 µM. The compound also came in with a CC50 at 3 days in data set [5] of 40 µM.
Consider `CC(=O)Oc1ccccc1C(=O)Nc1cc([N+](=O)[O-])ccc1Cl` [Compound 54, 2-(2-chloro-5-nitrophenylcarbamoyl)phenyl acetate], for which, in data set [1], the pEC50 is 5.68 and the EC90 turned out to be 8.5 µM. This compound came in with a CC50 at 9 days in data set [3] of 65 µM.
On to `O=C(O)c1ccccc1C(=O)Nc1ccccc1Cl` [Compound 15, 2-(2-chlorophenylcarbamoyl)benzoic acid], for which the melting point lay within 145.2 to 145.7 °C. In data set [4], this compound showed a pEC50 of 5.54 and a concentration for an effect of 90% (EC90) of 11 µM. In addition, it took 78 µM to reach half-maximal cytotoxicity in data set [5] (CC50 at 3 days).
In data set [4], `O=C(Nc1ccc(OC(F)(F)C(F)F)cc1)c1ccccc1O` [Compound 49, 2-hydroxy-N-(4-(1,1,2,2-tetrafluoroethoxy)phenyl)benzamide] had a pEC50 of 6.50 and an EC90 of 1.1 µM. The compound also had a 50% cytotoxic concentration (CC50) at 3 days in data set [5] of 3.9 µM.
Consider `O=C(Nc1cccc(Br)c1)c1ccccc1O`, for which the melting point amounted to 183.5 °C.
In turn, `Cc1cccc(C(=O)Nc2ccc(Cl)cc2)c1O` [Compound 20, N-(4-chlorophenyl)-2-hydroxy-3-methylbenzamide] showed a melting point of 159.6 to 161.6 °C. In addition, in data set [4], the pEC50 was 5.19 and the EC90 was determined as 16 µM. Further, the CC50 at 3 days in data set [5] was more than 100 µM.
On to `O=C(Nc1ccccc1Cl)c1ccccc1O` [Compound 23, N-(2-chlorophenyl)-2-hydroxybenzamide], for which the melting point lay in the range of 168.1 to 168.8 °C. In data set [4], this compound gave a pEC50 of 5.42 and an EC90 of 21 µM. In addition, in data set [5], the CC50 at 3 days was found to be 72 µM.
The compound `Cc1cccc(C(=O)Nc2cccc(Cl)c2)c1O` [Compound 14, N-(3-chlorophenyl)-2-hydroxy-3-methylbenzamide] showed a melting point of 148.5 °C. Moreover, in data set [4], the pEC50 was 5.55 and the EC90 was determined as 7.8 µM. The same compound registered a CC50 at 3 days in data set [5] of 35 µM.
Turning to `CS(=O)(=O)c1ccccc1NC(=O)c1ccccc1O`, the melting point lay within 142 to 145 °C.
For the compound `CC(=O)Oc1ccccc1C(=O)Nc1ccc(I)cc1` [Compound 40, 2-(4-iodophenylcarbamoyl)phenyl acetate], in data set [1], the pEC50 is 6.70 and the EC90 was 1.2 µM. Besides, in data set [2], the negative-log EC50 (pEC50) is 6.14 and the concentration for an effect of 90% (EC90) is 3.3 µM. In data set [3], the CC50 at 9 days was more than 100 µM.
With `Cc1cccc(C(=O)Nc2ccccc2F)c1O`, the melting point is 74.2 to 83.4 °C.
As to `Cc1cc([N+](=O)[O-])c(Cl)cc1NC(=O)c1ccccc1O` [Compound 42, N-(5-chloro-2-methyl-4-nitrophenyl)-2-hydroxybenzamide], in data set [1], the pEC50 is 6.64 and the EC90 was 0.71 µM. Further, in data set [2], the pEC50 is 6.17 and the EC90 was 2.1 µM. This compound yielded a CC50 at 9 days in data set [3] of more than 100 µM.
`CC(=O)Oc1ccccc1C(=O)Nc1ccccc1S(C)(=O)=O` registered a melting point of 115 to 117 °C.
Still for that read-out and setting: the value for `Cc1cccc(C(=O)Nc2ccc(F)cc2)c1O` was 144.8 to 145.8 °C.
With `CC(=O)Oc1ccccc1C(=O)Nc1ccc(Cl)c([N+](=O)[O-])c1` [Compound 53, 2-(4-chloro-3-nitrophenylcarbamoyl)phenyl acetate], in data set [1], the pEC50 was 5.70 and the EC90 worked out at 8.7 µM. Further, in data set [3], half-maximal cytotoxicity (CC50 at 9 days) was put at 52 µM.
Regarding `O=C(Nc1ccc([N+](=O)[O-])cc1)c1ccccc1O`, the melting point is 233 °C.
`CC(=O)Oc1ccccc1C(=O)Nc1ccc(S(C)(=O)=O)cc1` had a melting point of 184 to 186 °C.
Turning to `O=C(Nc1cccc([N+](=O)[O-])c1)c1ccccc1O` [Compound 7, 2-hydroxy-N-(3-nitrophenyl)benzamide], the melting point was found to be 222 °C. In data set [4], this compound had a negative-log EC50 (pEC50) of 5.96 and a concentration for an effect of 90% (EC90) of 6.1 µM. The same compound returned a CC50 at 3 days in data set [5] of 34 µM.
`CC(=O)Oc1ccccc1C(=O)Nc1cccc(F)c1` [Compound 24, 2-(3-fluorophenylcarbamoyl)phenyl acetate] displayed a melting point of 88.5 to 89.7 °C. In data set [4], this compound gave a negative-log EC50 (pEC50) of 5.68 and an EC90 of 6.8 µM. The compound further yielded a CC50 at 3 days in data set [5] of more than 100 µM.
In turn, `Cc1cccc(C(=O)Nc2cccc(Br)c2)c1O` showed a melting point of 147.2 to 148.2 °C.
